Reference: US12281122B1, “PI3K inhibitors” (Cogent Biosciences, Inc., priority 2023, dated 2025)

Key:
[1] = molecular target: PI3Kα (Homo sapiens, UniProt P42336); experiment: PI3Kα enzyme assay (Transcreener ADP2 TR-FRET Red Assay); format: biochemical; conditions: purified recombinant full-length protein; 2 hours pre-incubation with compound; read-out: PI3Kα WT IC50
Description: (§1) Activity against PI3Kα and PI3Kα H1047R enzymes were determined in biochemical assays using purified recombinant full-length proteins with the Transcreener ADP^2 TR-FRET Red Assay from Bellbrook Labs. (Catalogue number 3011-10K). Test compounds were dissolved in DMSO and were tested in 11 point 1:3 serial dilutions, typical final concentration range from 50,000 nM to 0.85 nM. Enzymes were pre-incubated with compounds for 2 hours at room temperature prior to initiating the reactions. Assays were initiated with a 2×ATP/PI(4,5)P2 diC8 substrate mixture. After 60 minutes at room temperature, the reactions were quenched with detection reagent and incubated for an additional 60 minutes at room temperature. The plates were read using a multimode reader and the emission ratio of 665 nm to 615 nm was determined. This ratio was converted to percent of control (POC). [1-(high control-sample signal)/(high control-low control)]*100. Wells without compound were used to determine high control values and wells without enzyme were used to determine low control values. The POC values were fit using a four-parameter logistic model and the value where the fit curve was equal to 50 POC was reported as the IC50 using the Signals VitroVivo software package (PerkinElmer). Final assay conditions were: 40 mM HEPES pH 7.5, 20 mM NaCl, 25 mM MgCl2, 0.01% Triton X-100. The enzyme source, catalogue number, final enzyme concentration, and final ATP and PI(4,5)P2 diC8 concentration can be found in the table E10 below.

[2] = molecular target: PI3Kα H1047R (Homo sapiens, UniProt P42336, H1047R); experiment: PI3Kα H1047R enzyme assay (Transcreener ADP2 TR-FRET Red Assay); format: biochemical; conditions: purified recombinant full-length protein; 2 hours pre-incubation with compound
PI3Kα H1047R, sequence (P42336 whole entry H1047R): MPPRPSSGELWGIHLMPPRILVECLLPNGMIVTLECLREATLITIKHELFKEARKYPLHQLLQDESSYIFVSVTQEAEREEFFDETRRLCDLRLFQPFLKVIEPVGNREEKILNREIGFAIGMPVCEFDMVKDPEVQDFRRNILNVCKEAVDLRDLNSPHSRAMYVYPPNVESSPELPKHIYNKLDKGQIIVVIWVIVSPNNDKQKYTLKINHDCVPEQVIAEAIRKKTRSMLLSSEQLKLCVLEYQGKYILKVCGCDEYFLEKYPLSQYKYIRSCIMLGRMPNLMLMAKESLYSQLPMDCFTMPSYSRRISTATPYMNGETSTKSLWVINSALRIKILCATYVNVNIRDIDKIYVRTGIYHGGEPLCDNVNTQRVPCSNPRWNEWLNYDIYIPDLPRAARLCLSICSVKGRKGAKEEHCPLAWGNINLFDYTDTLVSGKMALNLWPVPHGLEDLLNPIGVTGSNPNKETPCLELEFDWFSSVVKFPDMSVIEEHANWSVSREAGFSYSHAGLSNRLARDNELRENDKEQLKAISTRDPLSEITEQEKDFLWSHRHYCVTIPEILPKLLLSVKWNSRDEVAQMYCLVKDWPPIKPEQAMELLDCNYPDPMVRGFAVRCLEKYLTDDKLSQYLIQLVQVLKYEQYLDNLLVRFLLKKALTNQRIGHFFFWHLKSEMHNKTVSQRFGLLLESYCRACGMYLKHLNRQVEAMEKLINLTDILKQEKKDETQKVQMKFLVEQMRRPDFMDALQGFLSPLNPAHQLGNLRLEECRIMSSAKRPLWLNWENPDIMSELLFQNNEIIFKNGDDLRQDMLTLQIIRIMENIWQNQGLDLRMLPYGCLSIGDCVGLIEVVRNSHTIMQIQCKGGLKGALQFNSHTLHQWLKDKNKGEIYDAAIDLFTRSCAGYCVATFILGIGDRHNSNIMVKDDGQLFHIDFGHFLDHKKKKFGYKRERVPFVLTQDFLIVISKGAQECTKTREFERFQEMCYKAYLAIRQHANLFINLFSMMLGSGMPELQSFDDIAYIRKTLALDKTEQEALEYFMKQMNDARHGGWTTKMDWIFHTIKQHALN
PI3Kα H1047R, sequence (P27986 2-724 partner): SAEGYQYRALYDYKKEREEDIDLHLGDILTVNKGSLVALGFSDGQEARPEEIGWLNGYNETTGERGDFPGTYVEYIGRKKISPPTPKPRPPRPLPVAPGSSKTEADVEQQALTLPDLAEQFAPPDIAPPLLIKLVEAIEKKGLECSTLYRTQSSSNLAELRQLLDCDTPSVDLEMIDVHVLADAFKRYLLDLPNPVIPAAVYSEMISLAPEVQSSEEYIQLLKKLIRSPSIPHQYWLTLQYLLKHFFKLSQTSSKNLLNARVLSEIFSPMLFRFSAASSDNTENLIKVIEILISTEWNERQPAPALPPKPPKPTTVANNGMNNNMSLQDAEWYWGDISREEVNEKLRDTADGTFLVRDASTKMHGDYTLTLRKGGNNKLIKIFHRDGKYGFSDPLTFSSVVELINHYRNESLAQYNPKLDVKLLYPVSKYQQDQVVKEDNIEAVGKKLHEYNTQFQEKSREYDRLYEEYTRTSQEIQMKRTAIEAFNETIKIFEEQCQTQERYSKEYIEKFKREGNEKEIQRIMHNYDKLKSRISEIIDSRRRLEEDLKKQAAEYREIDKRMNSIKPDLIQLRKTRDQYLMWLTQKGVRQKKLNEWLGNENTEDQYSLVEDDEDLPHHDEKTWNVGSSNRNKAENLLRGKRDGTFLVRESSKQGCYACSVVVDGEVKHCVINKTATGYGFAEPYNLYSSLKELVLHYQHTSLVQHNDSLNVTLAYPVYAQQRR
Description: as §1

[3] = tested on: T47D (PI3Kα-H1047R) cell line; experiment: HTRF phospho-AKT(S473) cell assay in T47D cells; format: cell-based, human; conditions: Homo sapiens, 2 hours compound incubation
Procedure, shortened: (§2)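 T47D: RPMI + 10% FBS + 0.2 units/mL insulin, top 5 μM. SKBR3: McCoy's 5A + 10% FBS, top 10 μM, 70 ng/ml PDGF-BB last 15 min. Both: 12-pt 1:3, 2 h, 37° C, max 0.5% DMSO; HTRF pAKT(S473); IC50.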

[4] = tested on: SKBR3 (PI3Kα-Wild Type) cell line; experiment: HTRF phospho-AKT(S473) cell assay in SKBR3 cells; format: cell-based, human; conditions: Homo sapiens, SK-BR-3, 2 hours compound incubation, PDGF-BB stimulated
Procedure, shortened: as §2

[5] = T47D (PI3Kα-H1047R) cells, HTRF phospho-AKT(S473)
[6] = SKBR3 (PI3Kα-Wild Type) cells, HTRF phospho-AKT(S473)
[7] = T47D (PI3Kα-H1047R) cell line, phospho-AKT(S473) HTRF
[8] = SKBR3 (PI3Kα-Wild Type) cell line, phospho-AKT(S473) HTRF

PI3Kα, sequence (P42336 whole entry): as the sequence (P42336 whole entry H1047R) above, with R1047H counted along it
PI3Kα, sequence (P27986 2-724 partner): as the sequence (P27986 2-724 partner) above

Cc1cc([C@@H](C)Nc2ccc(Cl)nc2C(=O)NS(C)(=O)=O)c2nc(N3CCC(F)(F)C[C@@H]3C)n(C)c(=O)c2c1 (mixture of isomers) [Compound 12, 6-chloro-3-(((R)-1-(2-((S)-4,4-difluoro-2-methylpiperidin-1-yl)-3,6-dimethyl-4-oxo-3,4-dihydroquinazolin-8-yl)ethyl)amino)-N-(methylsulfonyl) picolinamide AND 6-chloro-3-(((R)-1-(2-((R)-4,4-difluoro-2-methylpiperidin-1-yl)-3,6-dimethyl-4-oxo-3,4-dihydroquinazolin-8-yl)ethyl)amino)-N-(methylsulfonyl) picolinamide]
IC50 [1]: ≥ 1 µM
IC50 [2]: 0.25 to 0.5 µM
IC50 [3, 5]: 0.25 to 0.5 µM
IC50 [4, 6]: 1 to 5 µM

Cc1cc([C@@H](C)Nc2ccc(Cl)nc2C(=O)NS(C)(=O)=O)c2nc(N3CCc4ccccc4[C@H]3C)n(C)c(=O)c2c1 (mixture of isomers) [Compound 19, 6-chloro-3-(((R)-1-(3,6-dimethyl-2-((R)-1-methyl-3,4-dihydroisoquinolin-2(1H)-yl)-4-oxo-3,4-dihydroquinazolin-8-yl)ethyl)amino)-N-(methylsulfonyl) picolinamide AND 6-chloro-3-(((R)-1-(3,6-dimethyl-2-((S)-1-methyl-3,4-dihydroisoquinolin-2(1H)-yl)-4-oxo-3,4-dihydroquinazolin-8-yl)ethyl)amino)-N-(methylsulfonyl) picolinamide]
IC50 [1]: ≥ 1 µM
IC50 [2]: ≥ 1 µM
IC50 [3, 5]: 0.5 to 1 µM
IC50 [4, 6]: ≥ 5 µM

Cc1cc([C@@H](C)Nc2ccc(Cl)nc2C(=O)NS(C)(=O)=O)c2nc(N3CCC(F)(F)C[C@H]3C)n(C)c(=O)c2c1 (single isomer, unassigned) [Compound 41, 6-chloro-3-(((R)-1-(2-((R*)-4,4-difluoro-2-methylpiperidin-1-yl)-3,6-dimethyl-4-oxo-3,4-dihydroquinazolin-8-yl)ethyl)amino)-N-(methylsulfonyl) picolinamide]
IC50 [1]: ≥ 1 µM
IC50 [2]: 0.5 to 1 µM
IC50 [3, 5]: 0.25 to 0.5 µM
IC50 [4, 6]: 1 to 5 µM

Cc1cc([C@@H](C)Nc2ccc(Cl)nc2C(=O)NS(C)(=O)=O)c2nc(N(C)CC3(C(F)(F)F)CC3)n(C)c(=O)c2c1 [Compound 43, (R)-6-chloro-3-((1-(3,6-dimethyl-2-(methyl((1-(trifluoromethyl)cyclopropyl)methyl)amino)-4-oxo-3,4-dihydroquinazolin-8-yl)ethyl)amino)-N-(methylsulfonyl) picolinamide]
IC50 [1]: ≥ 1 µM
IC50 [2]: ≥ 1 µM

Cc1cc([C@@H](C)Nc2ccc(Cl)nc2C(=O)NS(C)(=O)=O)c2nc(C#Cc3cnn(C)c3)n(C)c(=O)c2c1 [Compound 845, (R)-6-chloro-3-((1-(3,6-dimethyl-2-((1-methyl-1H-pyrazol-4-yl)ethynyl)-4-oxo-3,4-dihydroquinazolin-8-yl)ethyl)amino)-N-(methylsulfonyl) picolinamide]
IC50 [3, 7]: 0.5 to 1 µM
IC50 [4, 8]: ≥ 5 µM

Cc1cc([C@@H](C)Nc2ccc(Cl)nc2C(=O)NS(C)(=O)=O)c2nc(-c3ccc(OC4CCN(CC(F)(F)F)CC4)nc3)n(C)c(=O)c2c1 [Compound 846, (R)-6-chloro-3-((1-(3,6-dimethyl-4-oxo-2-(6-((1-(2,2,2-trifluoroethyl)piperidin-4-yl)oxy)pyridin-3-yl)-3,4-dihydroquinazolin-8-yl)ethyl)amino)-N-(methylsulfonyl) picolinamide]
IC50 [3, 7]: 0.25 to 0.5 µM
IC50 [4, 8]: ≥ 5 µM

Cc1cc([C@@H](C)Nc2ccc(Cl)nc2C(=O)NS(C)(=O)=O)c2nc(-c3ccc4nn(C)cc4c3)n(C3CC3)c(=O)c2c1 [Compound 847, (R)-6-chloro-3-((1-(3-cyclopropyl-6-methyl-2-(2-methyl-2H-indazol-5-yl)-4-oxo-3,4-dihydroquinazolin-8-yl)ethyl)amino)-N-(methylsulfonyl) picolinamide]
IC50 [3, 7]: < 0.25 µM
IC50 [4, 8]: 1 to 5 µM

Cc1cc([C@@H](C)Nc2ccc(Cl)nc2C(=O)NS(C)(=O)=O)c2nc([C@H]3[C@@H]4CNC[C@@H]43)n(C)c(=O)c2c1 [Compound 848, 3-(((R)-1-(2-((1R,5S,6r)-3-azabicyclo[3.1.0]hexan-6-yl)-3,6-dimethyl-4-oxo-3,4-dihydroquinazolin-8-yl)ethyl)amino)-6-chloro-N-(methylsulfonyl) picolinamide]
IC50 [3, 7]: 1 to 5 µM
IC50 [4, 8]: ≥ 5 µM

COc1nc2cc(-c3nc4c([C@@H](C)Nc5ccc(Cl)nc5C(=O)NS(C)(=O)=O)cc(C)cc4c(=O)n3C)ccc2n1C [Compound 849, (R)-6-chloro-3-((1-(2-(2-methoxy-1-methyl-1H-benzo[d]imidazol-5-yl)-3,6-dimethyl-4-oxo-3,4-dihydroquinazolin-8-yl)ethyl)amino)-N-(methylsulfonyl) picolinamide]
IC50 [3, 7]: 0.25 to 0.5 µM
IC50 [4, 8]: ≥ 5 µM

Cc1cc([C@@H](C)Nc2ccc(Cl)nc2C(=O)NS(C)(=O)=O)c2nc(-c3ccc4nn(-c5ncccn5)cc4c3)n(C)c(=O)c2c1 [Compound 850, (R)-6-chloro-3-((1-(3,6-dimethyl-4-oxo-2-(2-(pyrimidin-2-yl)-2H-indazol-5-yl)-3,4-dihydroquinazolin-8-yl)ethyl)amino)-N-(methylsulfonyl) picolinamide]
IC50 [3, 7]: < 0.25 µM
IC50 [4, 8]: 1 to 5 µM

Cc1cnc(-c2ccc(-c3nc4c([C@@H](C)Nc5ccc(Cl)nc5C(=O)NS(C)(=O)=O)cc(C)cc4c(=O)n3C)cn2)nc1 [Compound 851, (R)-6-chloro-3-((1-(3,6-dimethyl-2-(6-(5-methylpyrimidin-2-yl)pyridin-3-yl)-4-oxo-3,4-dihydroquinazolin-8-yl)ethyl)amino)-N-(methylsulfonyl) picolinamide]
IC50 [3, 7]: 0.25 to 0.5 µM
IC50 [4, 8]: 1 to 5 µM

Cc1cc([C@@H](C)Nc2ccc(Cl)nc2C(=O)NS(C)(=O)=O)c2nc(-c3cnc(N(C)C)nc3)n(C)c(=O)c2c1 [Compound 852, (R)-6-chloro-3-((1-(2-(2-(dimethylamino)pyrimidin-5-yl)-3,6-dimethyl-4-oxo-3,4-dihydroquinazolin-8-yl)ethyl)amino)-N-(methylsulfonyl) picolinamide]
IC50 [3, 7]: 0.25 to 0.5 µM
IC50 [4, 8]: ≥ 5 µM

Cc1cc([C@@H](C)Nc2ccc(Cl)nc2C(=O)NS(C)(=O)=O)c2nc([C@H]3[C@@H]4CN(c5ccnc(C)n5)C[C@@H]43)n(C)c(=O)c2c1 [Compound 853, 6-chloro-3-(((R)-1-(3,6-dimethyl-2-((1R,5S,6r)-3-(2-methylpyrimidin-4-yl)-3-azabicyclo[3.1.0]hexan-6-yl)-4-oxo-3,4-dihydroquinazolin-8-yl)ethyl)amino)-N-(methylsulfonyl) picolinamide]
IC50 [3, 7]: 0.25 to 0.5 µM
IC50 [4, 8]: ≥ 5 µM

Cc1cc([C@@H](C)Nc2ccc(Cl)nc2C(=O)NS(C)(=O)=O)c2nc(-c3ccc(-c4cnc(C)nc4)nc3)n(C)c(=O)c2c1 [Compound 854, (R)-6-chloro-3-((1-(3,6-dimethyl-2-(6-(2-methylpyrimidin-5-yl)pyridin-3-yl)-4-oxo-3,4-dihydroquinazolin-8-yl)ethyl)amino)-N-(methylsulfonyl) picolinamide]
IC50 [3, 7]: < 0.25 µM
IC50 [4, 8]: 1 to 5 µM

[2H]C([2H])([2H])n1cc(-c2ccc(-c3nc4c([C@@H](C)Nc5ccc(Cl)nc5C(=O)NS(C)(=O)=O)cc(C)cc4c(=O)n3C)cn2)cn1 [Compound 855, (R)-6-chloro-3-((1-(3,6-dimethyl-2-(6-(1-(methyl-d3)-1H-pyrazol-4-yl)pyridin-3-yl)-4-oxo-3,4-dihydroquinazolin-8-yl)ethyl)amino)-N-(methylsulfonyl) picolinamide]
IC50 [3, 7]: < 0.25 µM
IC50 [4, 8]: 1 to 5 µM

COc1ncc(-c2nc3c([C@@H](C)Nc4ccc(Cl)nc4C(=O)NS(C)(=O)=O)cc(C)cc3c(=O)n2C)cn1 [Compound 856, (R)-6-chloro-3-((1-(2-(2-methoxypyrimidin-5-yl)-3,6-dimethyl-4-oxo-3,4-dihydroquinazolin-8-yl)ethyl)amino)-N-(methylsulfonyl) picolinamide]
IC50 [3, 7]: 0.25 to 0.5 µM
IC50 [4, 8]: ≥ 5 µM
